Data reported in patent US12310964B2, “Compositions and methods for the treatment of Lowe Syndrome” (Purdue Research Foundation, priority 2020, dated 2025).

How the values were obtained:
Type in all cases: cell-based, Human
[1] = test system: LS patient cells; assay: Cell spreading assay after a predetermined time-point (cell area)
Experimental: Two approaches to monitor cell spreading were used: after a predetermined time-point and at multiple time points.
1) Spreading after a Predetermined Time-Point.
(§1) Human dermal fibroblasts (12 h after seeding) were treated with the indicated drug (or vehicle) in 0.1% serum for the indicated time. After drug treatment, the cells were lifted with 20 mM EDTA (ethylenediaminetetraacetic acid) in PBS (phosphate-buffered saline), pelleted at 300×g for 5 min and resuspended in 1% serum in the presence of drug or vehicle. Cell suspensions were then set in a rotator for 1 hour before seeding them on fibronectin-coated coverslips for 30 min, undisturbed, to allow attachment and spreading. After spreading, coverslips were gently rinsed with PBS and fixed in 4% formaldehyde for 10 min at room temperature. Cells were stained with rhodamine—phalloidin and imaged by epifluorescence microscopy. At least 50 cells were quantified per experiment by tracing and measuring cell areas by using the magic wand tool in ImageJ software (National Institutes of Health (NIH), Bethesda, MD, USA).
(§2) Cell spreading on fibronectin-coated surfaces of cells treated with RhoA modulators in comparison to untreated cells was observed. Cells were fixed and stained with fluorescently labeled-phalloidin after 30 min spreading time at 37° C. Following imaging, cell area measurements were performed.

[2] = test system: Normal fibroblasts; assay: as above; conditions: 30 min after seeding on fibronectin
Experimental: as §1, §2

[3] = test system: LS patient cells; assay: Viability/toxicity assessment (cell counting, morphology, MTT)
Experimental: Cells were incubated with the indicated drugs for the specified times at different concentrations as described in low serum (0.1%) media to avoid substantial protein-mediated drug sequestration. In addition to cell counting post-treatment, a sample of cells seeded on fibronectin-coated coverslips was fixed and stained with fluorescein isothiocyanate (FITC)-phalloidin and DAPI (4′,6-diamidino-2-phenylindole) for cell morphology inspection. Viability was monitored by performing MTT (3-(4,5-dimethylthiazol-2-yl)-2,5-diphenyltetrazolium bromide) assays as follows: Following treatment of cells (in triplicates) with indicated drugs at different concentrations for specified times, media were aspirated and replaced with MTT solution (freshly prepared at 0.5 mg/ml in complete media) and incubated for 1.5 h. Additionally, a blank control with only MTT reagent containing no cells was also prepared. Following incubation, solution was aspirated and MTT was immediately solubilized using 1 mL DMSO (dimethylsulfoxide) (per well) by gentle pipetting. Absorbance values of solubilized MTT solution from the different wells were measured at 570 nm using a spectrophotometer.

[4] = test system: HMG-CoA reductase in LS cells; assay: Cholesterol uptake assay; conditions: LS patient fibroblasts in Cho-free media
Experimental: Assay for cholesterol uptake was performed using cholesterol-free media and an AbCam kit (ab236212; Cambridge, UK) according to manufacturer's instructions.

[5] = test system: Rac1; assay: Rac1 FRET biosensor assay; conditions: LS cells, FRET-based biosensor
Experimental: FIG. 9. […] LS patient cells expressing Rac1 FRET probe were treated with vehicle or rosuvastatin, imaged and FRET signals analyzed by the ratiometric method (*p<0.05, Wilcoxon test).

[6] = test system: normal cells; assay: Ciliogenesis assay
Experimental: Cells were seeded on glass cover slips and grown for 24 h in complete media. Then media was replaced by 0.1% serum DMEM (starvation media) containing vehicle or the drug to induce ciliogenesis for the indicated times. Cells were then fixed in 4% formaldehyde—PBS for 10 min and immuno-labeled with anti-acetylated tubulin antibody (see Table 2). At least 50 cells were imaged for every experiment and experiments were repeated at least thrice. The fraction of cells displaying cilia and cilia length were determined as described previously (Coon et al. (2012), supra).

[7] = test system: LS patient cells; assay: Cell adhesion by time-lapse microscopy
Experimental: (§3) Human dermal fibroblasts were treated as described above, seeded on fibronectin-coated LabTek chambers, and allowed to attach and spread. Cells were imaged at intervals of 10 min after seeding for 8 h using 20× objective in a Zeiss Axiovert inverted microscope. Number of detaching cells was quantified every 10 min up to the first hour by using the cell counter tool in ImageJ (NIH). To determine spreading kinetics, individual cells were tracked in each time lapse image and were scored from 1-5 based on general cell morphology. Briefly, cells that were just attached and looked circular with no protrusions or visible extensions received a score of 1. Cells with needle-like (filopodia) projections were scored 2, cells with lamellopodia-like extensions were scored 3, cells with more extended lamellopodia-like extensions and increased cell area were given a score of 4, and a further increase in cell area, often accompanied by isotropic spread morphology, was given a score of 5.
Alternatively, cells were treated as described above and allowed to attach on fibronectin-coated dishes. Immediately after seeding, the cells were imaged with a 10× objective simultaneously using up to 3 Cytosmart Imaging Systems (Lonza, Basel, Switzerland) at intervals of 30 s for 2 h. Number of cells attached was quantified every 10 min up to the first hour using the Cell Counter tool in ImageJ software (NIH). […]

[8] = test system: LS patient cells; assay: Spreading at multiple time points (spreading score, time-lapse); conditions: LS patient cells treated with rosuvastatin; non-linear regression of FIG. 4 data
Experimental: as §3
A von Bertalanffy logistic model was adopted to fit the data presented in FIG. 3A (adhesion) and FIG. 4 (spreading) as shown in Table 3. […] The associated error ΔK was estimated using standard rules of error propagation based on the determined T0.5 error (ΔT0.5), according to ΔK=K(ΔT0.5/T0.5).

[9] = test system: Focal Adhesion Kinase (FAK); assay: Focal adhesion immunofluorescence (phospho-FAK), confocal microscopy; conditions: LS cells
Experimental: Cells were prepared as described under “Spreading after a pre-determined time point.” After fixation, indirect immunofluorescence was performed using antibodies against phospho-FAK (Y397) or vinculin. Briefly, cells were gently washed with PBS, fixed with 4% formaldehyde-PBS for 10 min and permeabilized using 0.25% Triton-X 100 in PBS for 20 min, followed by blocking with 5% BSA (bovine serum albumin) in PBS for 30 min. Cells were also immuno-stained with Phalloidin-FITC and DAPI to label the actin cytoskeleton and nucleus, respectively. Images were acquired at the Indiana O'Brien Center for Biological Microscopy (ICBM; Division of Nephrology, Indiana University School of Medicine, Indianapolis, IN, USA) using an Olympus IX81 inverted confocal microscope. A 60× Oil objective (NA 1.42) was used and randomly selected fields were imaged using constant voltage, gain and intensity for the different groups, as well as uniform step size (0.19 μm) using sequential image collection mode.

CC(C)c1nc(N(C)S(C)(=O)=O)nc(-c2ccc(F)cc2)c1/C=C/[C@@H](O)C[C@@H](O)CC(=O)O [rosuvastatin]
LS spreading phenotype alleviation, acute dose ([1]; 100 μM for 1 h): Phenotype alleviation was observed
cell spreading / membrane remodeling phenotype in cells from another LS patient ([1]; LS2 cells, FIG. 8A): ameliorated
LS cell spreading phenotype ([1]; LS patient fibroblasts, 30 min after seeding on fibronectin): mitigated to a certain extent the LS spreading phenotype
ranking of statins: rescue effect over needed dose and toxicity ([1]; LS spreading defects): produced the best results
cell spreading of normal cells [2]: No obvious effect
toxicity, chronic exposure ([3]; 10 μM for ≥72 h): relatively innocuous
toxicity, acute dose ([3]; 100 μM, exposure time≥15 h): induced toxicity
toxicity (viability and stress-induced changes in morphology) ([3]; LS cells after exposure to statins): minimal toxicity
uptake of fluorescently labeled Cho (inhibition of cholesterol biosynthesis) [4]: less acute inhibition of cholesterol biosynthesis
Rac1 activation levels [5]: raised
ciliogenesis by normal cells [6]: No obvious effect
LS cell adhesion defect ([7]; LS cells on fibronectin-coated surfaces): alleviated the LS cell adhesion defect
Adhesion, Process Continuous Rate ([7]; LS patient cells treated with rosuvastatin, fibronectin-coated surfaces, non-linear regression of FIG. 3A data): 35 ± 5 min^−1 × 10^3
Spreading, Process Continuous Rate [8]: 24 ± 2 min^−1 × 10^3
peripherally activated FAK (phospho-Tyr397) abnormality [9]: alleviated
